# Marks after values point to notes of the source that are not given here.
# Key:
# [1] = test system: Herpes virus of the type I (HSV-I/Leningrad/248/88); assay: Effect on Herpes virus, cytopathogenic action on Vero cells; type: cell-based, Herpes Simplex virus; settings: for Quantity of the unchanged cells (number of cells in 100 visual fields): Vero cells, 36 hours, cell control 10000; for percentage of protection of cells from virus: compared to the control of cell culture
# Method: An antiviral activity was determined with respect to Herpes virus of the type I (HSV-I/Leningrad/248/88) by means of commonly accepted method. Viruses were grown on a continuous culture of Vero cells that have been received from the Bank of Cell Cultures of the Institute of Cytology of the Russian Academy of Science.
# A virus in a final concentration of […] and the claimed compounds dissolved in DMSO in final concentrations of 100, 10 and 1 mg/l were added to cells that were grown on the RPMI-1640 medium with 10% fetal calf serum and placed into wells of the 96-well plate. 5 separate wells were used for each of tested concentrations of an agent. The plate was incubated during 60 minutes at 38° C. in a CO2-incubator. After the incubation, the virus was removed and then a fresh medium containing claimed compounds in used concentrations was again introduced.
# Results were evaluated basing on presence of cytopathogenic action on the cells after 36 hours of incubation at 38° C. in the CO2-incubator.
# The next controls were used in the experiment: • 1. Control of cell culture (capability to grow properly) • 2. Control of the virus (evaluation of capability for reproduction) • 3. Control of an antiviral activity of an antiviral drug Acyclovir • 4. Control of compounds (toxicity of compounds) • 5. Control of a solvent (DMSO) for toxicity.
# To estimate a cytopathic action of the virus, a quantity of the unchanged cells was calculated in 100 visual fields formed by a special net of an eyepiece of the inverted microscope.
# [2] = Antiulcerous action, water immersion stress with immobilization; type: in vivo, rats; settings: 20 mg/kg perorally
# Method: Antiulcerous activity of substances was tested on a model of experimental water immersion stress with immobilization. […] After that, gastric mucous membrane was investigated, number and sizes of ulcers were counted, ulceration index was determined (an average sum of ulcer lengths per one animal in a group).
# [3] = Hypoglycemic activity after glucose load; type: in vivo, mice; settings: Glibenclamide I mg/kg
# Method: Test substance (100 mg/kg) was perorally administrated to fasted mice, and, immediately after that, solution of glucose (1000 mg/kg) was administrated subcutaneously. Glucose content in blood was determined in a hour by the orthotoluidine method. Reducing of glucose level by more than 20% relative to control animals indicated hypoglycemic properties. Glibenclamide (I mg/kg) was utilized as a reference agent.
# [4] = test system: primary culture of human lymphocytes (IFN-α production); assay: Interferon-inducing activity in primary culture of human lymphocytes; type: cell-based
# Method: Interferon synthesis induction caused by the claimed compounds was conducted on a primary culture of human lymphocytes (it is these cells in a human organism that are the main producers of interferons). To obtain lymphocyte culture, fresh blood (within 12 hours after sampling) from healthy donors (not of group II) was used. To separate lymphocytes, heparinized blood obtained from healthy donor was centrifuged in a density gradient of ficoll-verografin of […] in order to extract a fraction of immunocompetent cells. This fraction was selected and diluted with the nutrient medium RPMI-1640, containing 5% of fetal calf serum, 0.3 mg/ml of L-glutamin, 100 un/ml of penicillin, and […] of streptomycin. The concentration of lymphocytes was considered after dying them with methylene blue and calculation of cell number in Goryaev chamber. Initial solutions of the claimed compounds were diluted with the nutrient medium RPMI-1640 so that the final concentrations of the compounds, which were obtained after introduction of lymphocyte suspension, constituted the raw: 100 μg/ml, 10 μg/ml, 1 μg/ml. The final concentration of lymphocytes in the induction mixture was 3×10^6 cell/ml.
# In parallels to the test samples the following controls were done: • 1). Control of spontaneous production of interferons (IFN) by lymphocytes. • 2). […] Control of spontaneous production of interferons in presence of DMSO taken in an amount corresponding to the test samples.
# Control and test samples were incubated for 24 hours at the temperature of 37° C. After incubation, the samples were centrifuged at 2,000 G to deposit cell elements, and IFN-containing supernatant was separate out of samples; then the supernatant was analyzed for the quantitative content of IFN. Cell deposition was resuspended in the previous volume of nutrient medium, coloured with vital dye trypan blue, and cell number was counted in the Goryaev chamber (as described above) to determine cytotoxic action of the compounds. The quantitative determination of content of IFN in control and test samples was conducted using the immunoenzyme test system Pro Con IF2 Plus, that is intended for determination of IFN-α, which is produced by TOO “Protein contour”. The solid-phase immunoenzyme method, utilizing horse radish peroxidase as an indicator enzyme, was used to determine the quantity of interferon in the samples. Activity of the bonded peroxidase was measured using an automatic photometer for microplates with a microprocessor at the wavelength of 450 nm.
# Based on the obtained results, a calibrating curve was formed, which allows to obtain data expressed in international units (IU) of activity, using the microprocessor of the automatic photometer. The results of the analysis are expressed in IU of activity of IFN per ml in the given induction system, which contains 3×10^4 lymphocyte/ml. Each test and control point was investigated in four parallels.
# Controls of immunoenzyme reaction: • 1. Control of DMSO with a nutrient medium. • 2. Control of system components (according to an instruction).
# The obtained data were undergone a statistical analysis using t-criterion, and calculation of the confident interval of probability at p=0.05 was carried out. Coincidence of results in the parallel tests was analyzed.
# [5] = test system: C.trachomatis D323; assay: Action on Chlamydia trachomatis in cell culture; type: cell-based; settings: 100 mg/l; for Number of unchanged cells: 48 hours, counted in 100 visual fields, cell control 8.000, infected cells 6.000
# Method: The antimicrobial activity of the claimed compounds was studied relative to C.trachomatis […], which is a standard strain from the collection of the chair of microbiology of St. Petersburg State Pavlov Medical University. […] Cell cultures McCoy and L929 obtained from the Institute of Cytology of RAS were used in this work. Cells were grown in flasks made of neutral glass in the medium RPMI-1640 with the addition of 10% of fetal calf serum. The test was performed in glass (non-toxic) flat-bottom flasks with cover glasses. The cells were introduced into the medium in the final concentration of […]. […] Simultaneously, tested compounds in a final concentration of 100 mg/l were added to the cells. The sample was centrifuged at 2400 G during 60 minutes at room temperature and incubated at 37° C. for 2 hours. […] The samples were doubled using the medium without cycloheximide so as to exclude its effect on the investigated compounds. The samples were incubated in a CO2-incubator for 48 hours. […] The effect of the action of substance was determined by analysis of the monolayer state and number of cells with CPI when compared with the control (cell culture infected with C.trachomatis […]); in doing so, the number of unchanged cells, that were counted in 100 visual fields obtained using the special net of the microscope eyepiece, was taken into consideration. […] Control of cell culture: morphology of cells and state of monolayer correspond to the given type of the cells; control of chlamydia growth in the cell culture: presence of CPI in the monolayer; control of action of standard antimicrobial agent: reduction of number of CPI in the monolayer as compared to the previous control; control of toxicity of the claimed compounds: toxicity is absent; control of action of solvents: toxic action on cells is absent.
SMILES,Quantity of the unchanged cells (number of cells in 100 visual fields) ([1]; compound 100 μg/ml),percentage of protection of cells from virus ([1]; compound 100 μg/ml),Content of IFN in induction mixture after 24-hour incubation ([4]; substance 1 mg/l) [IU/3 × 10^4 lymph./ml],Content of IFN in induction mixture after 24-hour incubation ([4]; substance 10 mg/l) [IU/3 × 10^4 lymph./ml],Content of IFN in induction mixture after 24-hour incubation ([4]; substance 100 mg/l) [IU/3 × 10^4 lymph./ml],percentage of cell protection from infection [5],Number of unchanged cells [5],other results
"Nc1nc2c(ncn2COCCO)c(=O)[nH]1 [Acyclovir, reference compound]",,,,,,,,Quantity of the unchanged cells (number of cells in 100 visual fields) ([1]; Acyclovir): 8000*; percentage of protection of cells from virus ([1]; Acyclovir): (80%)**
"CN(C)CCCN1c2ccccc2Sc2ccc(Cl)cc21 [Chlorpromazine, reference compound]",,,,,,,,"% of animals with ulcers ([2]; rats, 4 hours stress, control 100): 33%; % of reducing number of ulcers ([2]; versus control): −96%; % of reducing ulceration index ([2]; versus control): −97%; Number of lesions ([2]; control 8.3 ± 2.5): 0.3 ± 0.3; ulceration index ([2]; control 10.5 ± 5.7): 0.3 ± 0.3"
"COc1ccc(Cl)cc1C(=O)NCCc1ccc(S(=O)(=O)NC(=O)NC2CCCCC2)cc1 [Glibenclamide, reference compound]",,,,,,,,"% change of glucose relative to glucose control [3]: −40%; Glucose in blood ([3]; glucose 1000 mg/kg s.c., after one hour): 4.95 ± 0.31 mmol/L"
CC(C)(C)N1C(=O)NC(=O)C(=NO)C1=O [III],5000,(50%),4.2 ± 0.8,23.5 ± 1.2,65 ± 1.2,(50%),7.000,
COc1ccc(CN2C(=O)NC(=O)C(=NO)C2=O)cc1 [XIII],4500,(45%),,,,(50%),7.000,
O=C1NC(=O)N(Cc2ccc(F)cc2)C(=O)C1=NO [XII],4000,(40%),,,,(30%),6.600,
O=C1NC(=O)N(Cc2ccccc2)C(=O)C1=NO [XI],3500,(35%),32.8 ± 1.0,53.5 ± 1.2,60 ± 1.8,,,
O=C1NC(=S)N(c2ccc(Cl)cc2)C(=O)C1=NO [XLVI],,,6.6 ± 0.8,24.4 ± 1.4,52.1 ± 1.8,,,
CC(Cc1ccccc1)N1C(=O)NC(=O)C(=NO)C1=O (stereo not shown) [XVII],,,6.2 ± 0.5,13.0 ± 2.5,19.2 ± 1.2,(35%),6.700,
O=C1NC(=O)N(CCc2ccc(F)cc2)C(=O)C1=NO [XV],4000,(40%),,,,,,
O=C1NC(=O)N(c2cccc3ccccc23)C(=O)C1=NO [XXXIV],,,,,,(35%),6.700,
C=CCN1C(=O)C(=NO)C(=O)NC1=S [XXXIX],,,,,,(65%),7.300,
CCN1C(=O)C(=NO)C(=O)NC1=S [XXXVI],,,5.2 ± 1.0,6.8 ± 1.5,26.0 ± 1.4,,,
CCOc1ccc(N2C(=O)NC(=O)C(=NO)C2=O)cc1 [XXX],3000,(30%),,,,(35%),6.700,
Cc1ccccc1N1C(=O)NC(=O)C(=NO)C1=O [XX],3500,(35%),,,,,,
O=C1NC(=O)N(CCC2=CCCCC2)C(=O)C1=NO [X],,,8.6 ± 1.0,11.0 ± 1.2,30 ± 1.8,,,
